The values below come from patent US20240116875A1, “RATIONAL DESIGN, OPTIMIZATION, AND BIOLOGICAL EVALUATION OF NOVEL MEK4 INHIBITORS AGAINST PANCREATIC ADENOCARCINOMA” (NORTHWESTERN UNIVERSITY, priority 2022, published 2024).

For one data set, the system named is 97 kinases. Kind of data set: scanEDGE DiscoverX kinome-wide scan. It counts as binding. The conditions noted are these: 10 μM. From the text: (§1) To compare our compounds to the rest of the MEK inhibitors discovered thus far, we turned to the DiscoverX platform (KINOMEscan®, Eurofins DiscoverX), a widely used assay for comparing selectivity across the kinome. The DiscoverX platform reports the thermodynamic Kd in order to facilitate direct comparison of inhibitor affinity across the kinome, independent of ATP concentration.

The next data set deals with T1, BRAF (Homo sapiens, UniProt P15056).
T1 construct: purchased Eurofins DiscoverX scanEDGE
T1 sequence (P15056 whole entry): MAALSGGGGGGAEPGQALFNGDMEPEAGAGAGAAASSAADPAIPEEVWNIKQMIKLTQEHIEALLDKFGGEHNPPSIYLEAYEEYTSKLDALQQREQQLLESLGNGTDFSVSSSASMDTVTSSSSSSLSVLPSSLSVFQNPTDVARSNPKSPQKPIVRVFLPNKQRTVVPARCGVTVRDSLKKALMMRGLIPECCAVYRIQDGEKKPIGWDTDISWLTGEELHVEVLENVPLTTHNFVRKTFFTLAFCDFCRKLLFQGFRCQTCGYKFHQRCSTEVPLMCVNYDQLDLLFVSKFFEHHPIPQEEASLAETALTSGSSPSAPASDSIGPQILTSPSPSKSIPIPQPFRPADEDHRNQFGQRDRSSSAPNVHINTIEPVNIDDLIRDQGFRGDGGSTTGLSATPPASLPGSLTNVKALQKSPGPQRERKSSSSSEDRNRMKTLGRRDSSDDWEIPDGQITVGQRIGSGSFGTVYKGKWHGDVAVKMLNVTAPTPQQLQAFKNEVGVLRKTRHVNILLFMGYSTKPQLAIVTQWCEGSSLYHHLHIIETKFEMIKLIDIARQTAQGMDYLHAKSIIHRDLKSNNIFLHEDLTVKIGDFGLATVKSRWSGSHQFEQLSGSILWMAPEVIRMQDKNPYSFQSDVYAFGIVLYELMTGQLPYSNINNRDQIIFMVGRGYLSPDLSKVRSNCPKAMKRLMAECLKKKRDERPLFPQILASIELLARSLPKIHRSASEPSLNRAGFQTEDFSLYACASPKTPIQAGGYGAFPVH
Kind of data set: scanEDGE DiscoverX kinome-wide scan, BRAF. It counts as binding. The conditions noted are these: 10 μM.
Text: as §1

The nature of another data set: in vitro. The conditions noted are these: microsomes.
Data set [1] is described as follows: PAMPA assay (BioDuro-Sundia). In kind it is in vitro ADME. Background: The PAMPA barrier holds no transporters, so it reflects passive diffusion.
The subject of a further data set is Caco-2. Description: Caco-2 permeability assay. It counts as in vitro ADME.
Data set [2] has as its system JNK phosphorylation in HEK293T cells. Kind of data set: anisomycin-induced JNK phosphorylation, western blotting, HEK293T. In kind it is cell-based, human. The conditions noted are these: anisomycin 45 minutes then compound 5 hours, increasing doses. Here is the method: The blots are representative of at least three biological replicates.
We also examined the effects of these inhibitors on JNK phosphorylation and proliferation of two pancreatic cancer cell lines (CD18 and MiaPaCa2).
Human pancreatic cancer cell lines (CD18/HPAF-II and MiaPaCa2) and HEK293T cells were obtained from American Type Culture Collection. All cell lines were cultured according to the manufacturer's protocol. All media contained 10% Fetal Bovine Serum (FBS) and antibiotics (100 U/mL Penicillin and 100 μg/mL Streptomycin).
(§2) Whole cell extracts of cultured cells were prepared in radioimmunoprecipitation (RIPA) lysis buffer supplemented with phosphatase and protease inhibitors (Calbiochem). Protein concentration was determined by the bicinchoninic acid assay (BCA) (ThermoFisher) and separated by the SDS-PAGE technique. […] Secondary anti-mouse IgG (A4416) and anti-rabbit IgG (A6667) antibodies were purchased from Sigma-Aldrich and used a 1:4000 dilution. Images of blots were acquired on HyBlot ES Autoradiography Film (Thomas Scientific, Swedesboro, NJ, USA) following incubation with SuperSignal West Pico PLUS (ThermoFisher).
A general note: Immunoblotting shows a protein as a band on a membrane.

Data set [3] concerns MEK7 expression in HEK293T cells. Description: MEK7 expression, western blotting, HEK293T. The conditions noted are these: anisomycin pretreatment, compound 100 μM, 5 hours. It counts as cell-based, human. How it is done:
(§3) HSP90 was used as loading control. The blots are representative of at least three biological replicates.
(§4) We next evaluated the effects of our inhibitors on the phosphorylation activity and expression of MEK1/2, MEK3/6, and MEK7. […] We also evaluated the effects on p42/44 MAPK (ERK1/2), which functions downstream of MEK1/2.
as §2

Data set [4] deals with phospho-p38 MAPK in HEK293T cells. Description: p38 MAPK phosphorylation, western blotting, HEK293T. It counts as cell-based, human. The conditions noted are these: anisomycin pretreatment, compound 100 μM, 5 hours. How it is done:
as §3, §4, §2

Data set [5] relates to phospho-p42/44 MAPK in CD18 cells. Description: p42/44 MAPK phosphorylation, western blotting, CD18. The conditions noted are these: CD18, MEK4 inhibitor 10 μM, 5 hours. It counts as cell-based, human. How it is done:
The effects of different treatments on phospho-p42/44 MAPK and total p42/44 MAPK expression levels were determined by western blotting. HSP90 was used as loading control. The blots are representative of at least three biological replicates.
as §2

For a further data set, the target named is CYP 2C19 (Homo sapiens, UniProt P33261). Kind of data set: CYP inhibition, 2C19.
Sequence of CYP 2C19 (P33261 whole entry, canonical isoform): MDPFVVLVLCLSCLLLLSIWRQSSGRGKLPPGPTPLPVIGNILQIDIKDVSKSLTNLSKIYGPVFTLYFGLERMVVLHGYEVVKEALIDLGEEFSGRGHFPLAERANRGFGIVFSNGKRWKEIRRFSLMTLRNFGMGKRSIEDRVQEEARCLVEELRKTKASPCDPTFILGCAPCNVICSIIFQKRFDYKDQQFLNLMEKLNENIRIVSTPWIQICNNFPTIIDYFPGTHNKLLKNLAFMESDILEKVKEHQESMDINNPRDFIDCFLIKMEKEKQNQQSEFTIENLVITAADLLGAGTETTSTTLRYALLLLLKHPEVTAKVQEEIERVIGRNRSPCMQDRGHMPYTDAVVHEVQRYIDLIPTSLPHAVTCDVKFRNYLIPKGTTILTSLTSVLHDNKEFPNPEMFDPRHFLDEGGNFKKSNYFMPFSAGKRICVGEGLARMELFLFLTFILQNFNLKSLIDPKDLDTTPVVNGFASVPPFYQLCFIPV
The test system of another data set is CYP isoforms 3A4/5. Kind of data set: CYP inhibition, 3A4/5.

In general, half-life refers to the time in which the quantity being followed falls by half. A lower half-life goes with fast loss. Consider `NC(=O)c1ccc(NS(=O)(=O)c2cccc(-c3n[nH]c4cc(F)ccc34)c2)cc1` [Compound 15o, 4-((3-(6-fluoro-1H-indazol-3-yl)phenyl)sulfonamido)benzamide], for which, in the data set with 97 kinases, the “number of kinases hit at 80% or higher inhibition, out of 97 kinases” value came to 28. Moreover, the “inhibition of BRAF” value against BRAF is on record as “did not inhibit”. Further, in “in vitro”, the half-life was over 3.08 h and the “stability in the microsome assay” value is given as “good stability”. Besides, the “permeability in the PAMPA assay” value in data set [1] is reported as “low permeability”. Besides, in the data set on Caco-2, the Caco-2 permeability result is listed as “medium to high permeability”. The Pgp substrate result with Caco-2 (Caco-2 permeability assay) was “likely to be a Pgp substrate”. Also, the “effect on anisomycin-induced JNK phosphorylation” value in data set [2] is “attenuated anisomycin-induced INK phosphorylation in a dose-dependent manner”. In data set [3], the “effect on the expression of MEK7” value is “no effect”. Moreover, the “effect on anisomycin-induced p38 MAPK phosphorylation” value in data set [4] is recorded as “not affected”. In [5], the “effect on p42/44 MAPK phosphorylation” value was “increased p42/44 MAPK phosphorylation”. Also, the “inhibition of CYP 2C19” value at CYP 2C19 is listed as “inhibited”. Further, in the data set with CYP isoforms 3A4/5, the “inhibition of CYP isoforms 3A4/5” value is on record as “did not inhibit”.
